According to the supplement of paper PMC11208160:

Experiment: recombinant barcode read abundance after kanamycin selection (control-corrected) (log10(CPM+1)); higher = more efficient recombination; sequences stand for … in AGTGCAGAGAAAATCGGCCAGTTTTCTCTGCCTGCAGTCCGCATGCCGT…AGATTTATGCAGCGGACTGCCTTTCTCCCAAAGTGATAAACCGGACAGTATCATGGACCGGTTTTCCCGGTAATCCGTATTTGCAAGGTTGGTTTCACT; site = the 11-nt target
Procedure, shortened: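 Pooled E. coli screen pairing targets with IS621 bridge RNA target-binding loops. Each oligo (promoter, target, barcode, J23119-driven first 104 bridge RNA bases) was Gibson-cloned into a vector with the remaining 73 bp and T7-inducible recombinase, then co-electroporated with a donor plasmid. Two replicates each were plated on chloramphenicol/ampicillin LB agar (control) or chloramphenicol/ampicillin/kanamycin with 0.1 mM IPTG. Recombination efficiency is recombinant-junction barcode counts as CPM, averaged, control-corrected, reported as log10(CPM+1).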
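Also: IS621 recombinase and bridge RNA in Escherichia coli cells.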

Sequence	recombinant barcode read abundance (log10)
GGGATGGCTTGGGTTCTAACCTGTTGCCT (site TGGATGGCTAG)	0.0489
TGGCAGGCTTGGGTTCTAACCTGTTGCCT (site TGGCAGACTAG)	0.0119
TACTGGGCTTGGGTTCTAACCTGTTGCGG (site TACTGGGCTCC)	2.2
TTATACACTTGGGTTCTAACCTGTTGCAG (site CAGCGGTCTTC)	0.0563
GTCGTCACTTGGGTTCTAACCTGTTGCCT (site GTCGTCGCTAG)	0.15
CGGGCCTCTTGGGTTCTAACCTGTTGCAC (site CGGGCCTCTGT)	3.19
CGGCTTCCTTGGGTTCTAACCTGTTGCTT (site CGGCCTACTAA)	0.209
GAGTTGCCTTGGGTTCTAACCTGTTGCGG (site GAGTAGCCTCC)	0.0344
GTGTAGTCTTGGGTTCTAACCTGTTGCCG (site GTGTAGTCTCG)	1.19
AGGAACCCTTGGGTTCTAACCTGTTGCTG (site AGGAACCCTTA)	0.08
AGCTTAGCTTGGGTTCTAACCTGTTGCCC (site AGCTTAGCTGG)	0.395
TACCGGACTTGGGTTCTAACCTGTTGCCT (site TACCCGACTAG)	0.139
GTTACCGCTTGGGTTCTAACCTGTTGCCT (site GTCACCGCTAG)	0.345
CGTACCTCTTGGGTTCTAACCTGTTGCTT (site CGTACCTCTTA)	0.127
CGTTCCACTTGGGTTCTAACCTGTTGCCT (site CGTTCGACTAG)	0.279
CTGGCCACTTGGGTTCTAACCTGTTGCCT (site CTGGCCACTAG)	0.766
CCGTCTACTTGGGTTCTAACCTGTTGCTA (site CCGTCTACTGA)	0.125
AAGGGGTCTTGGGTTCTAACCTGTTGCTT (site AAGGGGTCTAA)	3.02
GTAACCTCTTGGGTTCTAACCTGTTGCCA (site GTAACCTCTCG)	0
CTATCCTCTTGGGTTCTAACCTGTTGCAT (site CTACCCTCTAT)	1.01
GACTTGTCTTGGGTTCTAACCTGTTGCGG (site GACTCATCTCC)	0
ATAGCAACTTGGGTTCTAACCTGTTGCCT (site ATAGCAACTAG)	0.64

Sequence	recombinant barcode read abundance (log10)
TGCGCCACTTGGGTTCTAACCTGTTGCCT (site TGCGCAACTAG)	0.113
ACTGTCACTTGGGTTCTAACCTGTTGCCT (site ACTGTGACTAG)	0.0913
CGTGCAGCTTGGGTTCTAACCTGTTGCCT (site CGGGCAGCTAG)	0.0626
CCAGTGACTTGGGTTCTAACCTGTTGCCT (site CCAGTCACTAG)	0.299
ACGAGGACTTGGGTTCTAACCTGTTGCCG (site ACGAGGACTCG)	1.09
GAGGGTCCTTGGGTTCTAACCTGTTGCTT (site GAGGGTCCTAC)	0.598
TACCGGTCTTGGGTTCTAACCTGTTGCTT (site TACCAGTCTAA)	0.18
CTATTGTCTTGGGTTCTAACCTGTTGCGG (site CTATTGTCTCC)	1.35
TCCAATACTTGGGTTCTAACCTGTTGCCG (site TCCAACACTCG)	0.0602
TTAGCTTCTTGGGTTCTAACCTGTTGCCT (site TTAGCGTCTAG)	0.0371
ATGTGCTCTTGGGTTCTAACCTGTTGCCT (site AGGTGCTCTAG)	0.22
CGGTACCCTTGGGTTCTAACCTGTTGCGG (site CAGCACCCTCC)	0.64
GAGTTTGCTTGGGTTCTAACCTGTTGCCT (site GCGTTTGCTAG)	0.0311
GTCAATCCTTGGGTTCTAACCTGTTGCTG (site GTCAAACCTCA)	0.00666
CCTCATTCTTGGGTTCTAACCTGTTGCTT (site CCTCAGTCTAA)	0.142
AAGGGCGCTTGGGTTCTAACCTGTTGCCT (site AAGGGCGCTAG)	1.49
GCTAACACTTGGGTTCTAACCTGTTGCCT (site ACTAACACTAG)	0.2
GACACGCCTTGGGTTCTAACCTGTTGCTT (site GACACGCCTAG)	0.0922
GTTCCATCTTGGGTTCTAACCTGTTGCCT (site GGTCCATCTAG)	0.216
AAGTATTCTTGGGTTCTAACCTGTTGCGT (site TAGTCTTCTAC)	0.022
AGATTCCCTTGGGTTCTAACCTGTTGCCG (site AGATTCGCTCG)	0.0429
